{"source": "patent US9351966B2", "about": "“Composition comprising a combination of omeprazole and lansoprazole, and a buffering agent, and methods of using same” (The Curators of the University of Missouri, priority 2008, dated 2016)", "key": {"[1]": {"settings": "cited from earlier work; for t1/2: Table 1, daily dose 15-160 mg as listed; for half-life of elimination, normal, mean: drug given alone; for mean plasma elimination half-life: healthy adults, clinical studies"}, "[2]": {"system": "2C19 and 3A4 isoforms of the Cytochrome P450 enzyme", "settings": "liver; cited from earlier work"}, "[3]": {"settings": "rats; drug or its metabolites; cited from earlier work"}, "Barrett's esophagus": {"system": "Barrett's esophagus", "settings": "extended treatment (years), twice per day or more, with or without surgery; cited from earlier work"}, "[4]": {"settings": "clinical trials; Zegerid (omeprazole) and Prevacid (lansoprazole) package inserts; cited from earlier work"}, "[5]": {"assay": "Cross-over study, blood draws: AUC and half-life of PPI", "assay_type": "in vivo, human", "settings": "for prolongation factor of elimination half-life: omeprazole and lansoprazole administered together versus normal", "protocol": "(§1) A study was performed as a cross-over design, with washout between doses. The subject received the test article after placing a Bravo pH probe in the stomach and verifying its placement with pH readings of less than 2. After a baseline evaluation, to ensure that the pH probe is in the correct place for reading gastric acid in the stomach, the subject has an intravenous access established and a baseline blood draw was taken to provide evidence of a lack of PPI in the blood at baseline. The subject received the one of three different formulations, and the time of administration was noted. Blood draws were taken at intervals to characterize the absorption, distribution and elimination phases of the test article. […] Continuous gastric pH recording was made utilizing the Bravo pH probe and radiofrequency receiver. Gastric pH values were recorded every 10 seconds.\nas §1, with “eighteen” for “three”"}, "intragastric acidity": {"system": "intragastric acidity", "settings": "after a single dose of PPI (Day 1); 20 mg delayed release; cited from earlier work"}}, "data": [{"smiles": "COc1ccc2[nH]c([S+]([O-])Cc3ncc(C)c(OC)c3C)nc2n1", "note": "(stereo not shown) [Tentaoprazole, 5-methoxy-2-[[(4-methoxy-3,5-dimethyl-2-pyridyl)methyl]sulfinyl]imidazo[4,5-b]pyridine]", "values": [{"measurement": "t1/2", "setting": "[1]", "value": "6.8 to 8", "unit": "h"}]}, {"smiles": "COc1ccc2nc([S@@+]([O-])Cc3ncc(C)c(OC)c3C)[nH]c2c1", "note": "[Esomerprazole]", "values": [{"measurement": "t1/2", "setting": "[1]", "value": "1.1 to 1.6", "unit": "h"}]}, {"smiles": "Cc1c(OCC(F)(F)F)ccnc1C[S+]([O-])c1nc2ccccc2[nH]1", "note": "(stereo not shown) [Lansoprazole]", "values": [{"measurement": "metabolism by Cytochrome P450 isoforms", "setting": "[2]", "value": "approximately equal amounts by both the 2C19 and 3A4 isoforms"}, {"measurement": "excretion in breast milk", "setting": "[3]", "value": "excreted in breast milk"}, {"measurement": "patients with reversal of Barrett's esophagus", "setting": "Barrett's esophagus", "value": "3 of 123"}, {"measurement": "Adverse effect: Abdominal pain", "setting": "[4]", "value": "2.1 % of patients"}, {"measurement": "Adverse effect: Asthenia", "setting": "[4]", "value": "<1 % of patients"}, {"measurement": "Adverse effect: Constipation", "setting": "[4]", "value": "1.0 % of patients"}, {"measurement": "Adverse effect: Diarrhea", "setting": "[4]", "value": "3.8 % of patients"}, {"measurement": "Adverse effect: Headache", "setting": "[4]", "value": "<1 % of patients"}, {"measurement": "t1/2", "setting": "[1]", "value": "1 to 1.5", "unit": "h"}, {"measurement": "half-life of elimination, normal, mean", "setting": "[1]", "value": "approximately 1.2 hrs"}, {"measurement": "mean plasma elimination half-life", "setting": "[1]", "value": "about 1.5 hours"}, {"measurement": "half-life", "setting": "[5]; human, blood, oral, omeprazole and lansoprazole together, e.g. 80 mg lansoprazole+80 mg omeprazole+1680 mg sodium bicarbonate, read-out: elimination half-life when administered together (converted)", "value": 3.7, "unit": "h"}, {"measurement": "prolongation factor of elimination half-life", "setting": "[5]", "value": 300, "unit": "%"}]}, {"smiles": "COCCCOc1ccnc(C[S+]([O-])c2nc3ccccc3[nH]2)c1C", "note": "(stereo not shown) [Rabeprazole]", "values": [{"measurement": "t1/2", "setting": "[1]", "value": "0.8 to 1", "unit": "h"}]}, {"smiles": "COc1ccc2[nH]c([S+]([O-])Cc3ncc(C)c(OC)c3C)nc2c1", "note": "(stereo not shown) [Omeprazole, 5-methoxy-2-[[(4-methoxy-3,5-dimethyl-2-pyridinyl)methyl]sulfinyl]-1H benzimidazole]", "values": [{"measurement": "IGA-24Day 1", "setting": "intragastric acidity", "value": 640, "unit": "mmol·h/L"}, {"measurement": "metabolism by Cytochrome P450 isoforms", "setting": "[2]", "value": "mostly by the 2C19 isoform"}, {"measurement": "patients with reversal of Barrett's esophagus", "setting": "Barrett's esophagus", "value": "3 of 123"}, {"measurement": "Adverse effect: Abdominal pain", "setting": "[4]", "value": "5.2 % of patients"}, {"measurement": "Adverse effect: Asthenia", "setting": "[4]", "value": "1.3 % of patients"}, {"measurement": "Adverse effect: Constipation", "setting": "[4]", "value": "1.5 % of patients"}, {"measurement": "Adverse effect: Diarrhea", "setting": "[4]", "value": "3.7 % of patients"}, {"measurement": "Adverse effect: Headache", "setting": "[4]", "value": "2.9 % of patients"}, {"measurement": "t1/2", "setting": "[1]", "value": "0.9 to 1.5", "unit": "h"}, {"measurement": "half-life of elimination, normal, mean", "setting": "[1]", "value": "approximately 0.95 hrs"}, {"measurement": "mean plasma elimination half-life", "setting": "[1]", "value": "less than 1 hours"}, {"measurement": "prolongation factor of elimination half-life", "setting": "[5]", "value": 200, "unit": "%"}, {"measurement": "elimination half-life when administered together", "setting": "[5]; omeprazole and lansoprazole together, e.g. 80 mg lansoprazole+80 mg omeprazole+1680 mg sodium bicarbonate", "value": 1.9, "unit": "h"}]}, {"smiles": "COc1ccnc(C[S+]([O-])c2nc3ccc(OC(F)F)cc3[nH]2)c1OC", "note": "(stereo not shown) [Pantoprazole]", "values": [{"measurement": "t1/2", "setting": "[1]", "value": "1.2 to 1.5", "unit": "h"}]}, {"smiles": "Cc1c(OCC(F)(F)F)ccnc1C[S@@+]([O-])c1nc2ccccc2[nH]1", "note": "[Dexlansoprazole]", "values": [{"measurement": "t1/2", "setting": "[1]", "value": "1 to 1.6", "unit": "h"}]}]}
